In PubChem BioAssay (NCI):
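Where inhibition never reached the appropriate level, the endpoint shown equals the highest concentration tested. Otherwise, values were interpolated linearly from a five-concentration, 48-hour dose response in 96-well plates. GI50 marks 50% less growth. Definition used: TGI = concentration required for complete inhibition of growth.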

Tests used:
Test in all cases: growth of human tumour cells (NCI), 48 h
NCI-H226 lung = test system: NCI-H226 lung
U251 CNS = test system: U251 CNS
MALME-3M melanoma = test system: MALME-3M melanoma
OVCAR-4 ovarian = test system: OVCAR-4 ovarian
OVCAR-8 ovarian = test system: OVCAR-8 ovarian
CCRF-CEM leukemia = test system: CCRF-CEM leukemia
SNB-19 CNS = test system: SNB-19 CNS
HS 578T breast = test system: HS 578T breast
KM12 colon = test system: KM12 colon
IGROV1 ovarian = test system: IGROV1 ovarian
MOLT-4 leukemia = test system: MOLT-4 leukemia
SNB-75 CNS = test system: SNB-75 CNS
786-0 renal = test system: 786-0 renal
SF-268 CNS = test system: SF-268 CNS
OVCAR-5 ovarian = test system: OVCAR-5 ovarian
NCI-H522 lung = test system: NCI-H522 lung
BT-549 breast = test system: BT-549 breast
ACHN renal = test system: ACHN renal
UACC-257 melanoma = test system: UACC-257 melanoma
SK-MEL-5 melanoma = test system: SK-MEL-5 melanoma
HCT-15 colon = test system: HCT-15 colon
NCI-H23 lung = test system: NCI-H23 lung
HCT-116 colon = test system: HCT-116 colon
MDA-MB-231 breast = test system: MDA-MB-231 breast
HOP-62 NSCLC = test system: HOP-62 NSCLC
CAKI-1 renal = test system: CAKI-1 renal
HL-60(TB) leukemia = test system: HL-60(TB) leukemia
MCF7 breast = test system: MCF7 breast
DU-145 prostate = test system: DU-145 prostate
A498 renal = test system: A498 renal
SK-OV-3 ovarian = test system: SK-OV-3 ovarian
MDA-MB-435 = test system: MDA-MB-435
UO-31 renal = test system: UO-31 renal
TK-10 renal = test system: TK-10 renal
SW-620 colon = test system: SW-620 colon
HT29 colon = test system: HT29 colon
SF-539 CNS = test system: SF-539 CNS
SK-MEL-2 melanoma = test system: SK-MEL-2 melanoma
A549 NSCLC = test system: A549 NSCLC
RXF 393 renal = test system: RXF 393 renal
HOP-92 NSCLC = test system: HOP-92 NSCLC
OVCAR-3 ovarian = test system: OVCAR-3 ovarian
RPMI-8226 leukemia = test system: RPMI-8226 leukemia
SF-295 CNS = test system: SF-295 CNS
SR leukemia = test system: SR leukemia
NCI-H460 lung = test system: NCI-H460 lung
PC-3 prostate = test system: PC-3 prostate
HCC-2998 colon = test system: HCC-2998 colon
SK-MEL-28 melanoma = test system: SK-MEL-28 melanoma
COLO 205 colon = test system: COLO 205 colon
K-562 leukemia = test system: K-562 leukemia
LOX IMVI melanoma = test system: LOX IMVI melanoma
NCI/ADR-RES ovarian = test system: NCI/ADR-RES ovarian
T-47D breast = test system: T-47D breast
UACC-62 melanoma = test system: UACC-62 melanoma
SN12C renal = test system: SN12C renal
M14 melanoma = test system: M14 melanoma

## O=C(Nc1ccccc1O)c1ccc(Oc2cccc(C(=O)Nc3ccccc3O)c2)cc1
NCI-H226 lung
  GI50: 2.06 µM
  TGI: 10.8 µM
U251 CNS
  GI50: 2.13 µM
  TGI: 8.16 µM
MALME-3M melanoma
  GI50: 1.48 µM
  TGI: 14 µM
OVCAR-4 ovarian
  GI50: 2.42 µM
  TGI: 9.03 µM
OVCAR-8 ovarian
  GI50: 2.03 µM
  TGI: 11.2 µM
CCRF-CEM leukemia
  GI50: 0.409 µM
  TGI: 9.15 µM
SNB-19 CNS
  GI50: 2.08 µM
  TGI: 14.4 µM
HS 578T breast
  GI50: 2.05 µM
  TGI: 12.2 µM
KM12 colon
  GI50: 3.17 µM
  TGI: 11.9 µM
IGROV1 ovarian
  GI50: 5.25 µM
  TGI: 27.3 µM
MOLT-4 leukemia
  GI50: 0.767 µM
  TGI: 6.85 µM
SNB-75 CNS
  GI50: 1.67 µM
  TGI: 7.73 µM
786-0 renal
  GI50: 2.84 µM
  TGI: 12.2 µM
SF-268 CNS
  GI50: 2.91 µM
  TGI: 15 µM
OVCAR-5 ovarian
  GI50: 12.9 µM
  TGI: 35 µM
NCI-H522 lung
  GI50: 1.07 µM
  TGI: 4.73 µM
BT-549 breast
  GI50: 2.53 µM
  TGI: 27 µM
ACHN renal
  GI50: 2.64 µM
  TGI: 11.9 µM
UACC-257 melanoma
  GI50: 1.69 µM
  TGI: 8.21 µM
SK-MEL-5 melanoma
  GI50: 1.13 µM
  TGI: 2.85 µM
HCT-15 colon
  GI50: 2.52 µM
  TGI: 12.3 µM
NCI-H23 lung
  GI50: 2.99 µM
  TGI: 11.3 µM
HCT-116 colon
  GI50: 2.84 µM
  TGI: 10.4 µM
MDA-MB-231 breast
  GI50: 2.22 µM
  TGI: 11.8 µM
HOP-62 NSCLC
  GI50: 2.24 µM
  TGI: 12.5 µM
CAKI-1 renal
  GI50: 1.91 µM
  TGI: 8.86 µM
HL-60(TB) leukemia
  GI50: 1.37 µM
  TGI: 10.4 µM
MCF7 breast
  GI50: 2.57 µM
  TGI: 11.5 µM
DU-145 prostate
  GI50: 3.37 µM
  TGI: 11.9 µM
A498 renal
  GI50: 0.0225 µM
  TGI: 5.06 µM
SK-OV-3 ovarian
  GI50: 4.42 µM
  TGI: 17.2 µM
MDA-MB-435
  GI50: 0.294 µM
  TGI: 10.2 µM
UO-31 renal
  GI50: 1.36 µM
  TGI: 6.39 µM
TK-10 renal
  GI50: 7.64 µM
  TGI: 30.2 µM
SW-620 colon
  GI50: 3.42 µM
  TGI: 12.7 µM
HT29 colon
  GI50: 4.93 µM
  TGI: 16.9 µM
SF-539 CNS
  GI50: 1.61 µM
  TGI: 6.3 µM
SK-MEL-2 melanoma
  GI50: 1.73 µM
  TGI: 5.87 µM
A549 NSCLC
  GI50: 2.91 µM
  TGI: 16.6 µM
RXF 393 renal
  GI50: 1.81 µM
  TGI: 6.42 µM
HOP-92 NSCLC
  GI50: 1.57 µM
  TGI: 6.07 µM
OVCAR-3 ovarian
  GI50: 3.28 µM
  TGI: 9.86 µM
RPMI-8226 leukemia
  GI50: 2.84 µM
  TGI: 8.78 µM
SF-295 CNS
  GI50: 2.88 µM
  TGI: 9.85 µM
SR leukemia
  GI50: 0.56 µM
  TGI: 11.4 µM
NCI-H460 lung
  GI50: 1.21 µM
  TGI: 11 µM
PC-3 prostate
  GI50: 1.84 µM
  TGI: 10.4 µM
HCC-2998 colon
  GI50: 3.62 µM
  TGI: 11.9 µM
SK-MEL-28 melanoma
  GI50: 1.84 µM
  TGI: 12.2 µM
COLO 205 colon
  GI50: 15.7 µM
  TGI: 29.9 µM
K-562 leukemia
  GI50: 0.819 µM
  TGI: > 100 µM
LOX IMVI melanoma
  GI50: 2.24 µM
  TGI: 12.2 µM
NCI/ADR-RES ovarian
  GI50: 1.5 µM
  TGI: 6.7 µM
T-47D breast
  GI50: 3.13 µM
  TGI: 10.1 µM
UACC-62 melanoma
  GI50: 1.22 µM
  TGI: 5.1 µM
SN12C renal
  GI50: 2.84 µM
  TGI: 17.9 µM

## O=c1cc(-c2ccccc2)[nH]n1-c1nc2ccccc2[nH]1
NCI-H226 lung
  GI50: 9.49 µM
  TGI: > 100 µM
MALME-3M melanoma
  GI50: 17.7 µM
  TGI: > 100 µM
OVCAR-8 ovarian
  GI50: 4.5 µM
  TGI: > 100 µM
CCRF-CEM leukemia
  GI50: 1.22 µM
  TGI: > 100 µM
SNB-19 CNS
  GI50: 4.89 µM
  TGI: > 100 µM
HS 578T breast
  GI50: 7.47 µM
  TGI: > 100 µM
KM12 colon
  GI50: 5.28 µM
  TGI: > 100 µM
IGROV1 ovarian
  GI50: 6.81 µM
  TGI: > 100 µM
SNB-75 CNS
  GI50: 4.66 µM
  TGI: > 100 µM
786-0 renal
  GI50: 4.8 µM
  TGI: 46.6 µM
SF-268 CNS
  GI50: 8.67 µM
  TGI: > 100 µM
OVCAR-5 ovarian
  GI50: 12.5 µM
  TGI: > 100 µM
NCI-H522 lung
  GI50: 3.65 µM
  TGI: 17.6 µM
BT-549 breast
  GI50: 7.03 µM
  TGI: > 100 µM
ACHN renal
  GI50: 4.36 µM
  TGI: > 100 µM
UACC-257 melanoma
  GI50: 6.18 µM
  TGI: > 100 µM
SK-MEL-5 melanoma
  GI50: 5.18 µM
  TGI: 23.4 µM
HCT-15 colon
  GI50: 3.44 µM
  TGI: > 100 µM
NCI-H23 lung
  GI50: 9.69 µM
  TGI: > 100 µM
HCT-116 colon
  GI50: 3.12 µM
  TGI: > 100 µM
MDA-MB-231 breast
  GI50: 6.92 µM
  TGI: 93.6 µM
HOP-62 NSCLC
  GI50: 4.96 µM
  TGI: > 100 µM
CAKI-1 renal
  GI50: 3.42 µM
  TGI: > 100 µM
HL-60(TB) leukemia
  GI50: 4.52 µM
  TGI: 29.1 µM
MCF7 breast
  GI50: 3.89 µM
  TGI: > 100 µM
DU-145 prostate
  GI50: 9.97 µM
  TGI: > 100 µM
A498 renal
  GI50: 3.72 µM
  TGI: 22.9 µM
SK-OV-3 ovarian
  GI50: 8.58 µM
  TGI: > 100 µM
MDA-MB-435
  GI50: 5.07 µM
  TGI: > 100 µM
UO-31 renal
  GI50: 5.68 µM
  TGI: 67.6 µM
TK-10 renal
  GI50: 17.7 µM
  TGI: > 100 µM
SW-620 colon
  GI50: 4.48 µM
  TGI: > 100 µM
SF-539 CNS
  GI50: 3.94 µM
  TGI: 27.1 µM
SK-MEL-2 melanoma
  GI50: 9.32 µM
  TGI: 66.8 µM
A549 NSCLC
  GI50: 4.46 µM
  TGI: > 100 µM
RXF 393 renal
  GI50: 3.94 µM
  TGI: 34.8 µM
HOP-92 NSCLC
  GI50: 4.25 µM
  TGI: 47.7 µM
OVCAR-3 ovarian
  GI50: 4.46 µM
  TGI: > 100 µM
RPMI-8226 leukemia
  GI50: 3.59 µM
  TGI: 52.4 µM
SF-295 CNS
  GI50: 2.92 µM
  TGI: > 100 µM
SR leukemia
  GI50: 5.86 µM
  TGI: > 100 µM
NCI-H460 lung
  GI50: 2.51 µM
  TGI: > 100 µM
PC-3 prostate
  GI50: 4.22 µM
  TGI: 44.5 µM
HCC-2998 colon
  GI50: 23.1 µM
  TGI: > 100 µM
SK-MEL-28 melanoma
  GI50: 3.61 µM
  TGI: > 100 µM
COLO 205 colon
  GI50: 27.8 µM
  TGI: > 100 µM
M14 melanoma
  GI50: 2.71 µM
  TGI: > 100 µM
K-562 leukemia
  GI50: 3.94 µM
  TGI: > 100 µM
LOX IMVI melanoma
  GI50: 4.61 µM
  TGI: 28.1 µM
NCI/ADR-RES ovarian
  GI50: 3.68 µM
  TGI: > 100 µM
T-47D breast
  GI50: 4.41 µM
  TGI: > 100 µM
UACC-62 melanoma
  GI50: 3.1 µM
  TGI: 13.8 µM
SN12C renal
  GI50: 6.84 µM
  TGI: > 100 µM
